According to patent US20240285571A1, “METHODS OF TREATING BONE INFECTIONS” (MICROBION CORPORATION, priority 2020, published 2024):
≈ marks a conversion by molar mass, not a printed value. Read-outs that look alike come from different tables or passages of the source.

How the values were obtained:
[1] = system: M. abscessus (MABSC); test: MIC against CF isolates (Example 7, Table 18); type: cell-based, Mycobacterium abscessus complex; conditions: Mycobacteroides abscessus
[2] = system: Corynebacterium amycolatum; test: MIC of baseline clinical isolates (Example 8); type: cell-based; conditions: Corynebacterium amycolatum baseline isolates (N′ = 1), central laboratory, mITT
Outline: (§1)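 Clinical isolates, aerobic and anaerobic, from infected bone/implant-adjacent tissue and deep or superficial wound sites (Day 1 and subsequent index-site surgeries); identified centrally; MBN-101 (BisEDT) susceptibility per CLSI.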

[3] = system: Corynebacterium resistens; test: MIC of baseline clinical isolates (Example 8); type: cell-based; conditions: Corynebacterium resistens baseline isolates (N′ = 1), central laboratory, mITT
Outline: as §1

[4] = system: Streptococcus oralis; test: MIC of baseline clinical isolates (Example 8); type: cell-based; conditions: Streptococcus oralis baseline isolates (N′ = 1), central laboratory, mITT
Outline: as §1

[5] = system: P. aeruginosa and A. baumannii; test: MIC summary, P. aeruginosa and A. baumannii (Example 5); type: cell-based; conditions: all evaluated P. aeruginosa and A. baumannii isolates (Table 4); read-out: MIC values across isolates
Procedure: Test and Comparator Agents: The test agents were stored at room temperature until assayed. All test agents were suspended and diluted in 100% dimethylsulfoxide (DMSO), and were ultimately tested at a final concentration of 0.06-64 μg/mL. The stock solutions were allowed to stand for at least 1 hr prior to use to auto-sterilize.
TestMedia: Test media were prepared and stored in accordance with guidelines from CLSI (4, 6, 7). […] Neisseria gonorrhoeae were evaluated by agar dilution using agar consisting of GC medium base (BD; Lot No. 4274618) supplemented with 1% IsoVitaleX (BD; Lot No. 5246843).
Broth Microdilution MC Testing (Aerobic Bacteria and Yeast): The broth microdilution assay method employed for the susceptibility testing of aerobic bacteria (excluding N. gonorrhoeae which was evaluated by agar dilution) and yeast essentially followed the procedures described by CLSI (3, 4, 7, 8) and employed automated liquid handlers to conduct serial dilutions and liquid transfers. […]
(§2) Plates were stacked 4 high, covered with a lid on the top plate, placed into plastic bags, and incubated at 35° C. for approximately 24-48 hr for all yeast isolates and 16-24 hr for aerobic bacteria. […] MIC endpoints for the test agents and control compounds were read per CLSI criteria (3, 7).

[6] = system: E. faecalis; test: Broth microdilution MIC (Example 5); type: cell-based, Enterococcus faecalis; conditions: Enterococcus faecalis, VRE
Procedure: (§3) Test and Comparator Agents: The test agents were stored at room temperature until assayed. […] The stock solutions were allowed to stand for at least 1 hr prior to use to auto-sterilize.
(§4) TestMedia: Test media were prepared and stored in accordance with guidelines from CLSI (4, 6, 7).
(§5) Broth Microdilution MC Testing (Aerobic Bacteria and Yeast): The broth microdilution assay method employed for the susceptibility testing of aerobic bacteria (excluding N. gonorrhoeae which was evaluated by agar dilution) and yeast essentially followed the procedures described by CLSI (3, 4, 7, 8) and employed automated liquid handlers to conduct serial dilutions and liquid transfers. […] These would become the ‘mother plates’ from which ‘daughter’ or test plates would be prepared. The drugs (300 μL at 40× the desired top concentration in the test plates) were dispensed into the appropriate well in Column 1 of the mother plates. The Biomek 2000 was used to make serial two-fold dilutions through Column 11 in the “mother plate”. The wells of Column 12 contained no drug and ultimately served as the organism growth control wells.
(§6) The daughter plates were prepared using the Biomek FX which transferred 5 μL of drug solution from each well of a mother plate to the corresponding well of the correct daughter plate in a single step.
(§7) A standardized inoculum of each organism was prepared per CLSI methods (3, 7). Isolated colonies of each test isolate were picked from the primary plate and a suspension was prepared to equal a 0.5 McFarland turbidity standard. Standardized suspensions were then diluted […] (1:100 for yeast, 1:20 for bacteria). After dilution, the inoculum suspensions were then transferred to compartments of sterile reservoirs divided by length (Beckman Coulter), and the Biomek 2000 was used to inoculate all plates. Daughter plates were placed on the Biomek 2000 in reverse orientation so that plates were inoculated from low to high drug concentration.
(§8) The Biomek 2000 delivered 10 μL of standardized inoculum into each well of the appropriate daughter plate for an additional 1:20 dilution.
as §2, with “bacteria. Plates were viewed from the bottom using a plate viewer.” for “bacteria.”

[7] = system: C. difficile; test: Agar dilution MIC, anaerobes (Example 5); type: cell-based, Clostridium difficile; conditions: Clostridioides difficile
[8] = system: A. baumannii; test: Broth microdilution MIC (Example 5); type: cell-based, Acinetobacter baumannii; conditions: Acinetobacter baumannii
Procedure: as §3, §4, §5, §6, §7, §8
as §2, with “bacteria. Plates were viewed from the bottom using a plate viewer.” for “bacteria.”

[9] = ATCC700057, C. difficile MMX 4381 (ATCC 700057), QC, CCI
[10] = C. difficile MMX 8272, ribotype 255, CCI
[11] = C. difficile MMX 8279, ribotype 005, CCR
[12] = C. difficile MMX 8281, ribotype 010, CCR
[13] = NCTC13307, C. difficile MMX 5681 (NCTC 13307), ribotype 012, CCR
[14] = NCTC13336, C. difficile MMX 5680 (NCTC 13336), ribotype 027, CCI METR
[15] = A. baumannii MMX 3373, Sensitive, read-out: MIC

SMILES	n (% resistant) [2]	n (% resistant) [3]	n (% resistant) [4]	MIC [5] [µg/mL]	MIC ([6]; E. faecalis MMX 8960) [µg/mL]	MIC ([6]; E. faecalis MMX 8961) [µg/mL]	MIC ([6]; E. faecalis MMX 8962) [µg/mL]	MIC [7, 9] [µg/mL]	MIC [7, 10] [µg/mL]	MIC [7, 11] [µg/mL]	MIC [7, 12] [µg/mL]	MIC [7, 13] [µg/mL]	MIC [7, 14] [µg/mL]	MIC [8, 15] [µg/mL]	also measured
NCC[C@H](O)C(=O)N[C@@H]1C[C@H](N)[C@@H](O[C@H]2O[C@H](CN)[C@@H](O)[C@H](O)[C@H]2O)[C@H](O)[C@H]1O[C@H]1O[C@H](CO)[C@@H](O)[C@H](N)[C@H]1O [Amikacin]															MIC ([1]; strain AMT0068-40, M abscessus/massiliense complex): 32 µg/mL (≈ 54.6 µM); MIC ([1]; strain AMT0119-7, M abscessus/massiliense complex): 32 µg/mL (≈ 54.6 µM)
CCC[C@@H]1C[C@@H](C(=O)N[C@@H]([C@H]2O[C@H](SC)[C@H](O)[C@@H](O)[C@H]2O)[C@H](C)Cl)N(C)C1 [CLI]	1 (100.0) n (%)	0 (0.0) n (%)	0 (0.0) n (%)												Mean MIC [2]: 2.00 µg/mL; Mean MIC [3]: 0.50 µg/mL; Mean MIC [4]: 0.03 µg/mL
C[C@H]1COc2c(N3CCN(C)CC3)c(F)cc3c(=O)c(C(=O)O)cn1c23 [Levofloxacin]	0 (0.0) n (%)	0 (0.0) n (%)	0 (0.0) n (%)												MIC [2]: 8 µg/mL; MIC [3]: 0.12 µg/mL; MIC [4]: 2 µg/mL
OCC(S)CS.[Bi] (centres unmarked) [MB-2B, bismuth-2,3-dimercaptopropanol]				2 to 16	2	2	2	8	8	16	8	8	2	16	MIC ([8]; A. baumannii MMX 2592, MDR): 16 µg/mL; MIC ([8]; A. baumannii MMX 2593, MDR): 16 µg/mL; MIC ([8]; A. baumannii MMX 3372, MDR): 16 µg/mL; MIC ([8]; NCTC13304, A. baumannii MMX 4651 (NCTC 13304), MDR, OXA-27): 16 µg/mL
CC(S)C(C)S.[Bi] (centres unmarked) [MB-6, bismuth-2,3-butanedithiol]				0.5 to 2	0.5	0.25	0.25	4	2	2	2	2	2	0.5	MIC ([1]; MABSC strain AMT0130-8): 0.0625 µg/mL
